Test results reported in US10300000B2, “Inhibition of melanogenesis by chemically modified curcumins” (The Research Foundation for The State University of New York, priority 2016, dated 2019).
pIC50: −log10 of the molar value.

Key:
[1] = target: T1, cellular tyrosinase in B16F10 cells (Mus musculus, UniProt P11344); assay: Intracellular tyrosinase activity in B16F10 cells; format: cell-based; conditions: B16F10 cells exposed for 48 hours; non-linear curve fitting; read-out: IC50-Cellular tyrosinase inhibition
T1 construct: endogenous in cells; host or cells: B16F10
T1 sequence (P11344 19-533): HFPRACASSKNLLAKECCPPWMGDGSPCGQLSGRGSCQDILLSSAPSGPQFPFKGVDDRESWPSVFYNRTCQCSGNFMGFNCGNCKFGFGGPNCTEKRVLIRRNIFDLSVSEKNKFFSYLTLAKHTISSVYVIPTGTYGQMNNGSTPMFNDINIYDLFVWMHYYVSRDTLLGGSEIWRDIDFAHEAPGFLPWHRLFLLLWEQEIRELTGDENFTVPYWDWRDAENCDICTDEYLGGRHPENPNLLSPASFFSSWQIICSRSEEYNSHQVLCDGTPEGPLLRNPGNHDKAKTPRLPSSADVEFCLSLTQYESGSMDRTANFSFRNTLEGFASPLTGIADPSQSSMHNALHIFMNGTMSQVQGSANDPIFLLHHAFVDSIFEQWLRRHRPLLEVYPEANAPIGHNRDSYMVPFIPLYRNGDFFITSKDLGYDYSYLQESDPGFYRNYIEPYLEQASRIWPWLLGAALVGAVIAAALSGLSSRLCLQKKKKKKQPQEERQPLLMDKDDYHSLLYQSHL
Description: We quantitated the cellular tyrosinase activity to delineate mechanism of melanogenesis inhibition by the compounds. Briefly, B16F10 cells were cultured in 24-well tissue culture plates at a density of 4×10^4 cells/well. After 24 hrs, media was changed and test compounds were added, and further incubated for 48 hrs. At the end of treatments, cells were trypsinized and cell pellets were washed in PBS and lysed with lysis buffer (containing 1% NP-40 to solubilize the normally membrane-bound enzyme and protease inhibitors) under ice for 20 minutes and then centrifuged to remove cellular debris. 50 μl of lysates were then aliquoted in 96-well microplate and 150 μl of 3 mM solution of freshly prepared L-DOPA in phosphate buffer, pH 6.8 was added. […] The % inhibition of tyrosinase activity was calculated by determining melanin formation rates from measurements of the linear regions of the slopes of melanin content as a function of time and comparing computed rates of melanin formation in the presence of the test compounds to those of the controls.

DPPH antioxidant assay = conditions: cell-free
From the text: Melanogenesis is often associated with higher oxidative stress and reactive oxygen species (ROS) generation. […] DPPH is a stable free radical which changes color from purple to yellow upon reduction by antioxidant compounds by electron donation; the color change can be measured spectrophotometrically. […] Briefly, 2,2-Diphenyl-1-picrylhydrazyl (DPPH) was freshly prepared in methanol and mixed with different concentrations of the compounds in triplicates in a 96 well plate. The Negative Control group consisted of DPPH only and Ascorbic Acid (AA) at 100 μg/ml was used as a positive control. The final DPPH concentration was 100 μM and final volume was 200 ul in the plate (20 μl samples with 180 μl of DPPH). The plate was covered and incubated for 30 minutes. Absorbance was read at 517 nm.

MITF = MITF protein levels by cell-based ELISA in B16F10 cells; parameters: species or system mouse; conditions: 48 hours
Description: MITF is the master regulator of melanogenesis and a known transcription factor for tyrosinase gene. The effects of PC and CMCs on micropthalmia transcription factor (MITF) proteins levels were assayed using a cell-based ELISA (LifeSpan Biosciences, Seattle). Briefly, B16F10 cells were cultured in a 96-well plate at 1×10^4 cells/well for 24 hours and then media was replaced with fresh media containing compounds in 0.1% DMSO for further 48 hours. The cells were then fixed and subsequent steps were conducted based on manufacturer instructions. The absorbance of MITF expression levels were normalized by absorbance of crystal violet stain (0.05%) and data was reported as % of control.

mushroom tyrosinase = assay: Mushroom tyrosinase activity, cell-free, L-DOPA substrate; format: biochemical; conditions: all concentrations tested
Description: The direct effects of the compounds on tyrosinase enzyme activity were tested using mushroom tyrosinase enzyme with L-DOPA substrate. Briefly, 80 μl of all the 6 test compounds prepared at different concentrations in 50 mM sodium phosphate (pH 6.5) buffer was added to 96 wells followed by 100 μl of freshly prepared substrate solution (3 mM L-DOPA in buffer). The reaction was initiated by adding 20 μl of mushroom tyrosinase enzyme (final concentration of enzyme in wells was 3.5 μg/ml). The production of DOPAchrome was monitored by measuring the kinetics of absorbance increase at 475 nm (for 30 min every 30 seconds) at 30° C. using microplate reader (Versamax®). The slopes of the kinetic readings were calculated to determine and compare tyrosinase activity from control.

HaCaT cells = assay: Phagocytosis assay using Fluosphere beads in keratinocytes; format: cell-based, human; conditions: beads 24 hours
From the text: The final steps of melanognesis in the skin involve transfer of melanin contained within matgure melanosomes from melanocytes to keratinocytes. In order to model melanosome uptake by keratinocytes in the presence of CMCs, we used uptake of fluosphere latex beads (0.5 μm, carboxylate-modified, Molecular Probes, Eugene, Oreg.) by a human keratinocyte cell line (HaCaT) as a model for melanosome uptake study; this model has been previously established [Cardinali G, et al. 2005; Cardinali, G. et al. 2008] to study phagocytosis by keratinocytes. HaCaT cells were cultured in 24 well plates (3.5×10^4 cells/well) for 48 hours and then media was replaced with fresh media containing CMCs (CMC2.14 at 10 μM, CMC2.5 at 20 μM, CMC2.23 at 20 μM and CMC2.24 at 20 μM). Control wells were treated with 0.1% DMSO. After 48 hours exposure, media was removed and wells were washed with PBS and Fluosphere bead solution was suspended in complete medium by sonication for 15 minutes was then diluted in complete medium before addition to the wells ([…]) and further incubation for 24 hours. After the treatment, wells were washed in PBS and extracellular fluorescence was quenched using trypan blue (0.1% in PBS); Fluorescence intensity over the entire bottom surface of each well was measured at excitation/emission of 580/605 using the “well-scan” mode with average of 21 points/well for triplicate wells in a Gemini EM fluorescence plate reader. Controls without any beads were used as blank for background subtraction and results are reported as RFU values expressed as % relative to control.

[2] = B16F10, 5 μM (printed 5 M for CMC2.23)
[3] = B16F10, 20 μM (printed 20 M for CMC2.5)

| SMILES | pIC50 [1] | DPPH antioxidant activity (DPPH antioxidant assay) | inhibition of MITF protein levels (MITF; [2]) | inhibition of MITF protein levels (MITF; B16F10, 10 μM) | inhibition of MITF protein levels (MITF; [3]) [%] | inhibition of mushroom tyrosinase activity (mushroom tyrosinase) | inhibition of phagocytosis of Fluosphere beads (HaCaT cells; 20 μM pretreatment 48 hours) [%] | inhibition of MITF protein levels (MITF; B16F10, tested concentrations 5-10 μM) | inhibition of phagocytosis of Fluosphere beads (HaCaT cells; 10 μM pretreatment 48 hours) [%] | inhibition of MITF protein levels (MITF; B16F10, 25 μM) [%] |
| --- | --- | --- | --- | --- | --- | --- | --- | --- | --- | --- |
| COC(=O)C(C(=O)C=Cc1ccc(O)c(OC)c1)C(=O)C=Cc1ccc(O)c(OC)c1 (stereo not shown) [CMC2.5, 4-methoxycarbonyl curcumin] | 4.29 | significant DPPH radical scavenging activity | did not show any suppression | did not show any suppression | 35 | moderate inhibition | 38.4 |  |  |  |
| COC(=O)C(C(=O)/C=C/c1ccc(O)cc1)C(=O)/C=C/c1ccc(O)cc1 [CMC2.14] | 5.33 | did not demonstrate potent antioxidant activity |  |  |  | moderate inhibition |  | did not show any significant reduction | 39.6 |  |
| COc1cc(/C=C/C(=O)C(C(=O)/C=C/c2ccc(O)c(OC)c2)C(=O)Nc2ccccc2)ccc1O [CMC2.23] | 4.89 | significant DPPH radical scavenging activity | 20% |  | 40 | moderate inhibition | 37.4 |  |  | 40 |
